According to publication PMC7555312, “Functional Characterization of Temporin-SHe, a New Broad-Spectrum Antibacterial and Leishmanicidal Temporin-SH Paralog from the Sahara Frog (Pelophylax saharicus)” (International Journal of Molecular Sciences, 2020):
Where no end group is shown, it is not given here.

Columns and labels:
L. ivanovii (Li4pVS2) = conditions: liquid growth inhibition (CLSI), 10^6 CFU/mL in brain heart infusion (BHI) medium, 37 °C, 18–20 h, OD 630 nm; mean of three independent experiments in triplicate
Description: Antibacterial activity of temporin-SHe was evaluated against Gram-positive bacteria including S. aureus strains (ATCC 25923, ST1065), antibiotic-resistant S. aureus strains (ATCC 43300, ATCC BAA-44), E. faecalis (ATCC 29212), B. megaterium, and L. ivanovii (Li4pVS2), and Gram-negative bacteria including E. coli strains (ATCC 25922, ATCC 35218, ML-35p), S. enterica (serotype Enteritidis), P. aeruginosa (ATCC 27853), A. baumannii (ATCC 19606) and K. pneumoniae (ATCC 13883). Antifungal activity was evaluated against C. albicans (ATCC 90028), C. parapsilosis (ATCC 22019) and S. cerevisiae. ATCC strains were purchased from American-Type Culture Collection (ATCC, Virginia, VA, USA). Antiparasitic activity was determined against promastigotes of several species of Leishmania responsible for visceral, cutaneous and mucocutaneous leishmaniases: L. infantum (strain MHOM/MA/67/ITMAP-263), L. major (strain MHOM/SU/73/5-ASKH), and L. braziliensis (strain MHOM/BR/75/M2904), respectively. Cytotoxicity was assessed against human red blood cells and THP-1 monocytes. Peripheral blood was obtained from healthy adult donors (Établissement Français du Sang, Paris, France). All donors signed informed consent allowing the use of their blood for research purposes.
Antimicrobial activity was assessed with a liquid growth inhibition assay performed according to a previously described protocol using the Clinical and Laboratory Standards Institute (CLSI) guidelines. Briefly, in 96-well microtitration plates, mid-log-phase bacteria diluted to 10^6 CFU/mL in Mueller–Hinton (MH) broth were added to different concentrations of synthetic temporin-SHe (1–200 µM, final concentrations) and incubated at 37 °C for 18–20 h, under shaking (150 rpm). For E. faecalis, L. ivanovii and yeasts/fungi, 10^6 CFU/mL suspensions were prepared in LB broth, brain heart infusion (BHI) medium and Yeast Peptone Dextrose (YPD) medium, respectively, and incubation was performed at 30 °C for yeasts/fungi. […] MIC values represent the average of three independent experiments, each performed in triplicate with negative (no peptide) and positive (formaldehyde 0.7%) controls.

human THP-1 monocytes = conditions: taken from literature; cited from earlier work
E. faecalis = system: E. faecalis; design: method as in 2 sources, ref 48 = [48]; PMID 28402481; doi:10.1093/abbs/gmx032; 48. Wang X. Ren S. Guo C. Zhang W. Zhang X. Zhang B. Li S. Ren J. Hu Y. Wang H. Identification and functional analyses of novel antioxidant peptides and antimicrobial peptides from skin secretions of ||| ref 49 = [49]; PMID 25066917; doi:10.1016/j.biochi.2014.07.013; 49. Guo C. Hu Y. Li J. Liu Y. Li S. Yan K. Wang X. Liu J. Wang H. Identification of multiple peptides with antioxidant and antimicrobial activities from skin and its secretions of Hylarana taipehensis; conditions: cited from earlier work
S. aureus = system: S. aureus; design: method as in 3 sources, one per row (each row's own in cited_ref): ref 46 = [46]; PMID 14499272; doi:10.1016/S0196-9781(03)00193-1; 46. Ali M.F. Knoop F.C. Vaudry H. Conlon J.M. Characterization of novel antimicrobial peptides from the skins of frogs of the Rana esculenta complex Peptides 2003 24 955 961 10.1016/S0196-9781(03)0019 ||| ref 48 = [48]; PMID 28402481; doi:10.1093/abbs/gmx032; 48. Wang X. Ren S. Guo C. Zhang W. Zhang X. Zhang B. Li S. Ren J. Hu Y. Wang H. Identification and functional analyses of novel antioxidant peptides and antimicrobial peptides from skin secretions of ||| ref 49 = [49]; PMID 25066917; doi:10.1016/j.biochi.2014.07.013; 49. Guo C. Hu Y. Li J. Liu Y. Li S. Yan K. Wang X. Liu J. Wang H. Identification of multiple peptides with antioxidant and antimicrobial activities from skin and its secretions of Hylarana taipehensis; conditions: cited from earlier work
Nocardia asteroides = system: Nocardia asteroides; design: method as in 2 sources, ref 48 = [48]; PMID 28402481; doi:10.1093/abbs/gmx032; 48. Wang X. Ren S. Guo C. Zhang W. Zhang X. Zhang B. Li S. Ren J. Hu Y. Wang H. Identification and functional analyses of novel antioxidant peptides and antimicrobial peptides from skin secretions of ||| ref 49 = [49]; PMID 25066917; doi:10.1016/j.biochi.2014.07.013; 49. Guo C. Hu Y. Li J. Liu Y. Li S. Yan K. Wang X. Liu J. Wang H. Identification of multiple peptides with antioxidant and antimicrobial activities from skin and its secretions of Hylarana taipehensis; conditions: cited from earlier work
[1] = system: Gram-negative bacteria (E. coli, P. aeruginosa, and K. pneumoniae); design: method as in PMID 28402481; conditions: cited from earlier work
[2] = system: Candida species (C. albicans and C. glabrata); design: method as in PMID 28402481; conditions: cited from earlier work
E. coli = system: E. coli; design: method as in PMID 14499272; conditions: cited from earlier work
L. mexicana amastigotes = conditions: cited from earlier work
From the text: Temporin-SHe represents an additional temporin with antiparasitic properties. This peptide was able to kill promastigote forms of the human parasite Leishmania, responsible for visceral (L. infantum), cutaneous (L. major) and muco-cutaneous (L. braziliensis) leishmaniasis. […] Until today, only six temporins (Ta, Tb, SHa, SHd, Tl and Tf) have been described as antiparasitic peptides and very few AMPs of other families are active against parasites (The Antimicrobial Peptide ...

In the case of “FLPAALAGIGGILGKLF-NH2 [Temporin-SHd, reference compound]”, the MIC (L. ivanovii (Li4pVS2)) is given as 10 µM and the “LC50 (lethal concentration 50)” value (human THP-1 monocytes) is given as 66 µM.
For “FLPFLAGLFGKIF-NH2 [Temporin-HB2, temporin isolated from the Hubei Frog Pelophylax hubeiensis]”, the MIC (E. faecalis) is listed as 19 µM, the MIC (S. aureus) is listed as 150 µM and the MIC (Nocardia asteroides) is listed as 75 µM. The “activity against Gram-negative bacteria” value [1] was “No activity” and the “activity against Candida species” value [2] was “No activity”.
In the case of “FLPLLFGALSTLLPKIF-NH2 [Temporin-TP3, temporin isolated from skin secretions of Hylarana taipehensis]”, the MIC (E. faecalis) is listed as 50 µM, the MIC (S. aureus) is listed as 25 µM and the MIC (Nocardia asteroides) is listed as 12.5 µM.
In the case of “FLPVIAGLLSKLF-NH2 [Temporin-1Ec, temporin isolated from Pelophylax lessonae/ridibundus]”, the MIC (S. aureus) is listed as 8 µM and the MIC (E. coli) is listed as greater than 100 µM.
For “FLSGIVGMLGKLF-NH2 [Temporin-SHa, 13-residue temporin-SH from Pelophylax saharicus]”, the “less efficiency against L. mexicana amastigotes (compared with promastigotes)” value (L. mexicana amastigotes) is given as “approximately 10 fold”.
